In ChEMBL document CHEMBL2021863, “Design and synthesis of new 4-pyrazolin-3-yl-1,2,3-triazoles and 1,2,3-triazol-4-yl-pyrazolin-1-ylthiazoles as potential antimicrobial agents” (2012):
≈ marks a conversion by molar mass, not a printed value.

Columns and labels:
Assay type in all cases: functional
Staphylococcus aureus [1] = test: Antimicrobial activity against Staphylococcus aureus ATCC 29213 after 24 hrs by two-fold serial dilution method; conditions: ATCC 29213, 24 h
Micrococcus luteus [2] = test: Antimicrobial activity against Sarcina lutea at 100 ug/ml after 24 hrs by agar well diffusion assay; conditions: read-out: DIZ
Bacillus subtilis [3] = test: Antimicrobial activity against Bacillus subtilis ATCC 6633 after 24 hrs by two-fold serial dilution method; conditions: ATCC 6633, 24 h
Saccharomyces cerevisiae [4] = test: Antifungal activity against Saccharomyces cerevisiae by two-fold serial dilution method
Pseudomonas aeruginosa [5] = test: Antimicrobial activity against Pseudomonas aeruginosa ATCC 27953 after 24 hrs by two-fold serial dilution method; conditions: ATCC 27953, 24 h
Candida albicans [6] = test: Antifungal activity against Candida albicans NRRL Y-477 at 100 ug/ml after 24 hrs by agar well diffusion assay; conditions: NRRL Y-477, 24 h, read-out: DIZ
Candida albicans [7] = test: Antifungal activity against Candida albicans NRRL Y-477 by two-fold serial dilution method
Staphylococcus aureus [8] = test: Antimicrobial activity against Staphylococcus aureus ATCC 29213 at 100 ug/ml after 24 hrs by agar well diffusion assay; conditions: ATCC 29213, 24 h, read-out: DIZ
Micrococcus luteus [9] = test: Antimicrobial activity against Sarcina lutea after 24 hrs by two-fold serial dilution method
Escherichia coli [10] = test: Antimicrobial activity against Escherichia coli ATCC 25922 after 24 hrs by two-fold serial dilution method; conditions: ATCC 25922, 24 h
Pseudomonas aeruginosa [11] = test: Antimicrobial activity against Pseudomonas aeruginosa ATCC 27953 at 100 ug/ml after 24 hrs by agar well diffusion assay; conditions: ATCC 27953, 24 h, read-out: DIZ
Klebsiella pneumoniae [12] = test: Antimicrobial activity against Klebsiella pneumoniae ATCC 13883 after 24 hrs by two-fold serial dilution method; conditions: ATCC 13883, 24 h
Saccharomyces cerevisiae [13] = test: Antifungal activity against Saccharomyces cerevisiae at 100 ug/ml after 24 hrs by agar well diffusion assay; conditions: read-out: DIZ
Klebsiella pneumoniae [14] = test: Antimicrobial activity against Klebsiella pneumoniae ATCC 13883 at 100 ug/ml after 24 hrs by agar well diffusion assay; conditions: ATCC 13883, 24 h, read-out: DIZ
Escherichia coli [15] = test: Antimicrobial activity against Escherichia coli ATCC 25922 at 100 ug/ml after 24 hrs by agar well diffusion assay; conditions: ATCC 25922, 24 h, read-out: DIZ
Bacillus subtilis [16] = test: Antimicrobial activity against Bacillus subtilis ATCC 6633 at 100 ug/ml after 24 hrs by agar well diffusion assay; conditions: ATCC 6633, 24 h, read-out: DIZ
Priestia megaterium [17] = test: Antimicrobial activity against Bacillus megaterium ATCC 9885 after 24 hrs by two-fold serial dilution method; conditions: ATCC 9885, 24 h
Priestia megaterium [18] = test: Antimicrobial activity against Bacillus megaterium ATCC 9885 at 100 ug/ml after 24 hrs by agar well diffusion assay; conditions: ATCC 9885, 24 h, read-out: DIZ

SMILES	MIC (Staphylococcus aureus [1])	zone of inhibition at 100 µg/mL (Micrococcus luteus [2])	MIC (Bacillus subtilis [3])	MIC (Saccharomyces cerevisiae [4])	MIC (Pseudomonas aeruginosa [5])	zone of inhibition at 100 µg/mL (Candida albicans [6])	MIC (Candida albicans [7])	zone of inhibition at 100 µg/mL (Staphylococcus aureus [8])	MIC (Micrococcus luteus [9])	MIC (Escherichia coli [10])	zone of inhibition at 100 µg/mL (Pseudomonas aeruginosa [11])	MIC (Klebsiella pneumoniae [12])	zone of inhibition at 100 µg/mL (Saccharomyces cerevisiae [13])	zone of inhibition at 100 µg/mL (Klebsiella pneumoniae [14])	zone of inhibition at 100 µg/mL (Escherichia coli [15])	zone of inhibition at 100 µg/mL (Bacillus subtilis [16])	MIC (Priestia megaterium [17])	zone of inhibition at 100 µg/mL (Priestia megaterium [18])
Cc1ccc(-n2nnc(C3=NN(c4nc(-c5ccc(Cl)cc5)cs4)C(c4ccc(F)cc4)C3)c2C)cc1 (centres undefined)	8.25 µg/mL (≈ 15.6 µM)	22 mm	8.25 µg/mL (≈ 15.6 µM)	16.5 µg/mL (≈ 31.2 µM)	16.5 µg/mL (≈ 31.2 µM)	25 mm	16.5 µg/mL (≈ 31.2 µM)	28 mm	66 µg/mL (≈ 125 µM)	33 µg/mL (≈ 62.4 µM)	24 mm	16.5 µg/mL (≈ 31.2 µM)	28 mm	28 mm	29 mm	30 mm		
Cc1ccc(-n2nnc(C3=NN(c4nc(-c5ccc(Br)cc5)cs4)C(c4ccc(F)cc4)C3)c2C)cc1 (centres undefined)	8.25 µg/mL (≈ 14.4 µM)	22 mm	33 µg/mL (≈ 57.5 µM)	8.25 µg/mL (≈ 14.4 µM)		30 mm	8.25 µg/mL (≈ 14.4 µM)	30 mm	66 µg/mL (≈ 115 µM)	16.5 µg/mL (≈ 28.8 µM)		16.5 µg/mL (≈ 28.8 µM)	30 mm	24 mm	22 mm	26 mm	33 µg/mL (≈ 57.5 µM)	22 mm
Cc1ccc(-n2nnc(C3=NN(C4=NC(=O)CS4)C(c4ccc(F)cc4)C3)c2C)cc1 (centres undefined)		16 mm		66 µg/mL (≈ 152 µM)	33 µg/mL (≈ 75.9 µM)	16 mm	132 µg/mL (≈ 304 µM)		132 µg/mL (≈ 304 µM)	8.25 µg/mL (≈ 19 µM)	20 mm		18 mm		28 mm		8.25 µg/mL (≈ 19 µM)	30 mm
Cc1ccc(-n2nnc(C(=O)/C=C/c3ccccc3)c2C)cc1	16.5 µg/mL (≈ 54.4 µM)	26 mm	33 µg/mL (≈ 109 µM)	66 µg/mL (≈ 218 µM)	8.25 µg/mL (≈ 27.2 µM)	24 mm	16.5 µg/mL (≈ 54.4 µM)	22 mm	16.5 µg/mL (≈ 54.4 µM)	8.25 µg/mL (≈ 27.2 µM)	28 mm	132 µg/mL (≈ 435 µM)	22 mm	16 mm	32 mm	26 mm		
Cc1ccc(-n2nnc(C(=O)/C=C/c3ccc(F)cc3)c2C)cc1	16.5 µg/mL (≈ 51.3 µM)	16 mm	16.5 µg/mL (≈ 51.3 µM)	16.5 µg/mL (≈ 51.3 µM)	132 µg/mL (≈ 411 µM)	22 mm	16.5 µg/mL (≈ 51.3 µM)	20 mm	132 µg/mL (≈ 411 µM)		16 mm	132 µg/mL (≈ 411 µM)	23 mm	16 mm		26 mm	16.5 µg/mL (≈ 51.3 µM)	24 mm
Cc1ccc(-n2nnc(C(=O)/C=C/c3ccc(C#N)cc3)c2C)cc1	16.5 µg/mL (≈ 50.2 µM)	24 mm	8.25 µg/mL (≈ 25.1 µM)	8.25 µg/mL (≈ 25.1 µM)	8.25 µg/mL (≈ 25.1 µM)	24 mm	16.5 µg/mL (≈ 50.2 µM)	23 mm	16.5 µg/mL (≈ 50.2 µM)	132 µg/mL (≈ 402 µM)	26 mm	16.5 µg/mL (≈ 50.2 µM)	30 mm	24 mm	16 mm	28 mm		
Cc1ccc(-n2nnc(C(=O)/C=C/c3ccc(N4CCCCC4)cc3)c2C)cc1	132 µg/mL (≈ 342 µM)	28 mm	33 µg/mL (≈ 85.4 µM)	66 µg/mL (≈ 171 µM)	132 µg/mL (≈ 342 µM)	18 mm	16.5 µg/mL (≈ 42.7 µM)	16 mm	33 µg/mL (≈ 85.4 µM)	8.25 µg/mL (≈ 21.3 µM)	16 mm		20 mm		28 mm	18 mm	33 µg/mL (≈ 85.4 µM)	20 mm
Cc1ccc(-n2nnc(C3=NNC(c4ccccc4)C3)c2C)cc1 (centres undefined)	8.25 µg/mL (≈ 26 µM)	30 mm	8.25 µg/mL (≈ 26 µM)	8.25 µg/mL (≈ 26 µM)	8.25 µg/mL (≈ 26 µM)	28 mm	8.25 µg/mL (≈ 26 µM)	34 mm	16.5 µg/mL (≈ 52 µM)	132 µg/mL (≈ 416 µM)	28 mm		28 mm		16 mm	32 mm	132 µg/mL (≈ 416 µM)	16 mm
Cc1ccc(-n2nnc(C3=NNC(c4ccc(F)cc4)C3)c2C)cc1 (centres undefined)	33 µg/mL (≈ 98.4 µM)	18 mm		66 µg/mL (≈ 197 µM)	8.25 µg/mL (≈ 24.6 µM)	16 mm	132 µg/mL (≈ 394 µM)	20 mm	66 µg/mL (≈ 197 µM)	132 µg/mL (≈ 394 µM)	30 mm	132 µg/mL (≈ 394 µM)	18 mm	16 mm	16 mm		132 µg/mL (≈ 394 µM)	16 mm
Cc1ccc(-n2nnc(C3=NNC(c4ccc(C#N)cc4)C3)c2C)cc1 (centres undefined)		28 mm	33 µg/mL (≈ 96.4 µM)	8.25 µg/mL (≈ 24.1 µM)	8.25 µg/mL (≈ 24.1 µM)	28 mm	8.25 µg/mL (≈ 24.1 µM)		8.25 µg/mL (≈ 24.1 µM)	8.25 µg/mL (≈ 24.1 µM)	28 mm	8.25 µg/mL (≈ 24.1 µM)	30 mm	30 mm	30 mm	26 mm	33 µg/mL (≈ 96.4 µM)	24 mm
Cc1ccc(-n2nnc(C3=NNC(c4ccc(N5CCCCC5)cc4)C3)c2C)cc1 (centres undefined)	132 µg/mL (≈ 330 µM)	18 mm	132 µg/mL (≈ 330 µM)	66 µg/mL (≈ 165 µM)		18 mm	132 µg/mL (≈ 330 µM)	18 mm	33 µg/mL (≈ 82.4 µM)				18 mm			16 mm		
Cc1ccc(-n2nnc(C3=NN(C(=S)Nc4ccccc4)C(c4ccccc4)C3)c2C)cc1 (centres undefined)	8.25 µg/mL (≈ 18.2 µM)	20 mm		16.5 µg/mL (≈ 36.5 µM)	132 µg/mL (≈ 292 µM)	24 mm	16.5 µg/mL (≈ 36.5 µM)	18 mm	66 µg/mL (≈ 146 µM)	8.25 µg/mL (≈ 18.2 µM)	24 mm	16.5 µg/mL (≈ 36.5 µM)	26 mm	18 mm		26 mm	8.25 µg/mL (≈ 18.2 µM)	24 mm
Cc1ccc(-n2nnc(C3=NN(C(=S)Nc4ccccc4)C(c4ccc(F)cc4)C3)c2C)cc1 (centres undefined)	132 µg/mL (≈ 281 µM)	20 mm	16.5 µg/mL (≈ 35.1 µM)	16.5 µg/mL (≈ 35.1 µM)		22 mm	16.5 µg/mL (≈ 35.1 µM)	16 mm	16.5 µg/mL (≈ 35.1 µM)			16.5 µg/mL (≈ 35.1 µM)	24 mm	22 mm		27 mm	16.5 µg/mL (≈ 35.1 µM)	20 mm
Cc1ccc(-n2nnc(C3=NN(C(=S)Nc4ccccc4)C(c4ccc(C#N)cc4)C3)c2C)cc1 (centres undefined)	33 µg/mL (≈ 69.1 µM)	24 mm		8.25 µg/mL (≈ 17.3 µM)	66 µg/mL (≈ 138 µM)	22 mm	33 µg/mL (≈ 69.1 µM)	20 mm	33 µg/mL (≈ 69.1 µM)		22 mm		24 mm					
Cc1ccc(-n2nnc(C3=NN(C(=S)NC(=O)c4ccccc4)C(c4ccc(N5CCCCC5)cc4)C3)c2C)cc1 (centres undefined)	132 µg/mL (≈ 234 µM)	23 mm	33 µg/mL (≈ 58.5 µM)	8.25 µg/mL (≈ 14.6 µM)	33 µg/mL (≈ 58.5 µM)	30 mm	8.25 µg/mL (≈ 14.6 µM)	16 mm	66 µg/mL (≈ 117 µM)	8.25 µg/mL (≈ 14.6 µM)	26 mm		30 mm		32 mm	24 mm	8.25 µg/mL (≈ 14.6 µM)	30 mm
Cc1ccc(-n2nnc(C3=NN(C(N)=S)C(c4ccc(F)cc4)C3)c2C)cc1 (centres undefined)		16 mm		8.25 µg/mL (≈ 20.9 µM)	16.5 µg/mL (≈ 41.8 µM)	26 mm	16.5 µg/mL (≈ 41.8 µM)		132 µg/mL (≈ 335 µM)	16.5 µg/mL (≈ 41.8 µM)	26 mm		30 mm		22 mm		132 µg/mL (≈ 335 µM)	18 mm
